Reference: patent US10092620B2, “Uses of cyclic peptides for treating and preventing atherosclerosis” (THE SCRIPPS RESEARCH INSTITUTE, priority 2013, dated 2018)
Non-standard residues stand in square brackets, D forms with d. 4Pal = N[C@@H](Cc1ccncc1)C(=O)O; Aoc(2) = CCCCCC[C@H](N)C(=O)O; dOrn = NCCC[C@@H](N)C(=O)O; Orn = NCCC[C@H](N)C(=O)O; Dap = NC[C@H](N)C(=O)O

Test system: HDL in human plasma
Experiment: pre-beta HDL ELISA assay: remodeling HDL in human plasma in vitro
Type: biochemical
Conditions: for Pre-beta HDL generated (normalized level): pre-beta HDL ELISA
Method: First, various cyclic peptides, including the majority of compounds shown in FIG. 2, were assessed for activities for remodeling HDL in human plasma in vitro. Unlike western blot which was used to generate data shown in FIG. 2, here a pre-beta HDL ELISA assay was used to measure pre-beta HDL levels. Results from the assay are shown in Table 1, which lists the peptides in the order of their activities in remodeling HDL.

| Substance | Pre-beta HDL generated (normalized level) | activity in generating pre-beta HDL (in words) |
| --- | --- | --- |
| w(Aoc)wReQeR (cyclo([dW][Aoc(2)][dW]R[dE]Q[dE]R); ring closure inferred) [SEQ ID NO:31] | 0.04 | – |
| 62 (cyclo([dY]Y[dV]Y[dH]H); SMILES CC(C)[C@H]1NC(=O)[C@H](Cc2ccc(O)cc2)NC(=O)[C@@H](Cc2ccc(O)cc2)NC(=O)[C@H](Cc2c[nH]cn2)NC(=O)[C@@H](Cc2c[nH]cn2)NC(=O)[C@H](Cc2ccc(O)cc2)NC1=O) [compound 62] | 0.17 | – |
| 9 (cyclo([dW]L[dW]R[dD]N[dD]K); SMILES CC(C)C[C@@H]1NC(=O)[C@@H](Cc2c[nH]c3ccccc23)NC(=O)[C@H](CCCCN)NC(=O)[C@@H](CC(=O)O)NC(=O)[C@H](CC(N)=O)NC(=O)[C@@H](CC(=O)O)NC(=O)[C@H](CCCNC(=N)N)NC(=O)[C@@H](Cc2c[nH]c3ccccc23)NC1=O) [compound 9] | 0.47 | – |
| 77 (cyclo(W[dF]E[dL]Y[dS]H[dOrn]); ring closure inferred) [compound 77] | 0.02 | – |
| c[WlWwkhkh] (cyclo(WIW[dW][dK][dH][dK][dH])) [SEQ ID NO:47] | – | excellent activities in generating plasma pre-beta HDL |
| 20 (cyclo([dW]L[dL]E[dE]K[dK]N); SMILES CC(C)C[C@@H]1NC(=O)[C@@H](Cc2c[nH]c3ccccc23)NC(=O)[C@H](CC(N)=O)NC(=O)[C@@H](CCCCN)NC(=O)[C@H](CCCCN)NC(=O)[C@@H](CCC(=O)O)NC(=O)[C@H](CCC(=O)O)NC(=O)[C@@H](CC(C)C)NC1=O) [compound 20] | 0.07 | – |
| c[WIWrEqEr] (cyclo(WIW[dR]E[dQ]E[dR]); SMILES CC[C@H](C)[C@@H]1NC(=O)[C@H](Cc2c[nH]c3ccccc23)NC(=O)[C@@H](CCCNC(=N)N)NC(=O)[C@H](CCC(=O)O)NC(=O)[C@@H](CCC(N)=O)NC(=O)[C@H](CCC(=O)O)NC(=O)[C@@H](CCCNC(=N)N)NC(=O)[C@H](Cc2c[nH]c3ccccc23)NC1=O) [SEQ ID NO:50] | – | excellent activities in generating plasma pre-beta HDL |
| 17 (cyclo(Y[dW]D[dS]K[dH]); SMILES NCCCC[C@@H]1NC(=O)[C@@H](CO)NC(=O)[C@H](CC(=O)O)NC(=O)[C@@H](Cc2c[nH]c3ccccc23)NC(=O)[C@H](Cc2ccc(O)cc2)NC(=O)[C@@H](Cc2c[nH]cn2)NC1=O) [compound 17] | 0.08 | – |
| 68 (cyclo([dW]W[dF]Y[dK]H[dS]S); SMILES NCCCC[C@H]1NC(=O)[C@H](Cc2ccc(O)cc2)NC(=O)[C@@H](Cc2ccccc2)NC(=O)[C@H](Cc2c[nH]c3ccccc23)NC(=O)[C@@H](Cc2c[nH]c3ccccc23)NC(=O)[C@H](CO)NC(=O)[C@@H](CO)NC(=O)[C@H](Cc2c[nH]cn2)NC1=O) [compound 68] | 0.07 | – |
| 73 (cyclo(L[dW]L[dH]K[dK]E[dH]); SMILES CC(C)C[C@@H]1NC(=O)[C@@H](Cc2c[nH]c3ccccc23)NC(=O)[C@H](CC(C)C)NC(=O)[C@@H](Cc2c[nH]cn2)NC(=O)[C@H](CCC(=O)O)NC(=O)[C@@H](CCCCN)NC(=O)[C@H](CCCCN)NC(=O)[C@@H](Cc2c[nH]cn2)NC1=O) [compound 73] | 0.04 | – |
| 22 (cyclo([dW][Aoc(2)][dW]S[dE]Q[dS][Orn]); SMILES CCCCCC[C@@H]1NC(=O)[C@@H](Cc2c[nH]c3ccccc23)NC(=O)[C@H](CCCN)NC(=O)[C@@H](CO)NC(=O)[C@H](CCC(N)=O)NC(=O)[C@@H](CCC(=O)O)NC(=O)[C@H](CO)NC(=O)[C@@H](Cc2c[nH]c3ccccc23)NC1=O) [compound 22] | 0.13 | – |
| 8 (cyclo([dW]L[dW]K[dD]N[dD]K); SMILES CC(C)C[C@@H]1NC(=O)[C@@H](Cc2c[nH]c3ccccc23)NC(=O)[C@H](CCCCN)NC(=O)[C@@H](CC(=O)O)NC(=O)[C@H](CC(N)=O)NC(=O)[C@@H](CC(=O)O)NC(=O)[C@H](CCCCN)NC(=O)[C@@H](Cc2c[nH]c3ccccc23)NC1=O) [compound 8] | 0.26 | – |
| 40 (cyclo([dW]L[dW]S[dE]Q[dH]K); SMILES CC(C)C[C@@H]1NC(=O)[C@@H](Cc2c[nH]c3ccccc23)NC(=O)[C@H](CCCCN)NC(=O)[C@@H](Cc2c[nH]cn2)NC(=O)[C@H](CCC(N)=O)NC(=O)[C@@H](CCC(=O)O)NC(=O)[C@H](CO)NC(=O)[C@@H](Cc2c[nH]c3ccccc23)NC1=O) [compound 40] | 0.40 | – |
| 70 (cyclo(L[dL]W[dL]K[dK]K[dK]); SMILES CC(C)C[C@@H]1NC(=O)[C@@H](CCCCN)NC(=O)[C@H](CCCCN)NC(=O)[C@@H](CCCCN)NC(=O)[C@H](CCCCN)NC(=O)[C@@H](CC(C)C)NC(=O)[C@H](Cc2c[nH]c3ccccc23)NC(=O)[C@@H](CC(C)C)NC1=O) [compound 70] | 0.06 | – |
| 75 (cyclo([dW]L[dW][Dap][dE]Q[dE]K); ring closure inferred) [compound 75] | 0.03 | – |
| 67 (cyclo([dW][homoleucine][dW]R[dE]Q[dE]R); ring closure inferred) [compound 67] | 0.08 | – |
| 15 (cyclo(Y[dL]W[dY]K[dH]A[dE]); SMILES CC(C)C[C@H]1NC(=O)[C@H](Cc2ccc(O)cc2)NC(=O)[C@@H](CCC(=O)O)NC(=O)[C@H](C)NC(=O)[C@@H](Cc2c[nH]cn2)NC(=O)[C@H](CCCCN)NC(=O)[C@@H](Cc2ccc(O)cc2)NC(=O)[C@H](Cc2c[nH]c3ccccc23)NC1=O) [compound 15] | 0.51 | – |
| 5 (cyclo([dF]W[dW]Y[dQ]H[dH]Q); SMILES NC(=O)CC[C@@H]1NC(=O)[C@@H](Cc2c[nH]cn2)NC(=O)[C@H](Cc2c[nH]cn2)NC(=O)[C@@H](CCC(N)=O)NC(=O)[C@H](Cc2ccc(O)cc2)NC(=O)[C@@H](Cc2c[nH]c3ccccc23)NC(=O)[C@H](Cc2c[nH]c3ccccc23)NC(=O)[C@@H](Cc2ccccc2)NC1=O) [compound 5] | 1.29 | – |
| 74 (cyclo([dF]F[dY]F[dK]K); SMILES NCCCC[C@@H]1NC(=O)[C@@H](CCCCN)NC(=O)[C@H](Cc2ccccc2)NC(=O)[C@@H](Cc2ccc(O)cc2)NC(=O)[C@H](Cc2ccccc2)NC(=O)[C@@H](Cc2ccccc2)NC1=O) [compound 74] | 0.04 | – |
| 49 (cyclo([4Pal][dW]L[dL]H[dS]K[dK]); not fully specified; printed as c[(PA)wLlHsKk]) [compound 49] | 0.67 | – |
| 59 (cyclo([dW]Y[dW]Y[dS]R[dS][dS]); SMILES N=C(N)NCCC[C@@H]1NC(=O)[C@@H](CO)NC(=O)[C@H](Cc2ccc(O)cc2)NC(=O)[C@@H](Cc2c[nH]c3ccccc23)NC(=O)[C@H](Cc2ccc(O)cc2)NC(=O)[C@@H](Cc2c[nH]c3ccccc23)NC(=O)[C@@H](CO)NC(=O)[C@@H](CO)NC1=O) [compound 59] | 0.24 | – |
| 65 (cyclo([dY]G[dW]W[dN]N[dK]N); SMILES NCCCC[C@H]1NC(=O)[C@H](CC(N)=O)NC(=O)[C@@H](CC(N)=O)NC(=O)[C@H](Cc2c[nH]c3ccccc23)NC(=O)[C@@H](Cc2c[nH]c3ccccc23)NC(=O)CNC(=O)[C@@H](Cc2ccc(O)cc2)NC(=O)[C@H](CC(N)=O)NC1=O) [compound 65] | 0.11 | – |
| 64 (cyclo([dW]F[dW]Y[dR]S[dS]H); SMILES N=C(N)NCCC[C@H]1NC(=O)[C@H](Cc2ccc(O)cc2)NC(=O)[C@@H](Cc2c[nH]c3ccccc23)NC(=O)[C@H](Cc2ccccc2)NC(=O)[C@@H](Cc2c[nH]c3ccccc23)NC(=O)[C@H](Cc2c[nH]cn2)NC(=O)[C@@H](CO)NC(=O)[C@H](CO)NC1=O) [compound 64] | 0.16 | – |
| 19 (cyclo([dW]L[dW][Orn][dE]N[dE][Orn]); SMILES CC(C)C[C@@H]1NC(=O)[C@@H](Cc2c[nH]c3ccccc23)NC(=O)[C@H](CCCN)NC(=O)[C@@H](CCC(=O)O)NC(=O)[C@H](CC(N)=O)NC(=O)[C@@H](CCC(=O)O)NC(=O)[C@H](CCCN)NC(=O)[C@@H](Cc2c[nH]c3ccccc23)NC1=O) [compound 19] | 0.36 | – |
| c[fWwYqHhQ] (cyclo([dF]W[dW]Y[dQ]H[dH]Q); SMILES NC(=O)CC[C@@H]1NC(=O)[C@@H](Cc2c[nH]cn2)NC(=O)[C@H](Cc2c[nH]cn2)NC(=O)[C@@H](CCC(N)=O)NC(=O)[C@H](Cc2ccc(O)cc2)NC(=O)[C@@H](Cc2c[nH]c3ccccc23)NC(=O)[C@H](Cc2c[nH]c3ccccc23)NC(=O)[C@@H](Cc2ccccc2)NC1=O) [SEQ ID NO:5] | – | excellent activities in promoting generation of pre-beta HDL |
| 24 (cyclo([dW]L[dW]H[dE]Q[dE]H); SMILES CC(C)C[C@@H]1NC(=O)[C@@H](Cc2c[nH]c3ccccc23)NC(=O)[C@H](Cc2c[nH]cn2)NC(=O)[C@@H](CCC(=O)O)NC(=O)[C@H](CCC(N)=O)NC(=O)[C@@H](CCC(=O)O)NC(=O)[C@H](Cc2c[nH]cn2)NC(=O)[C@@H](Cc2c[nH]c3ccccc23)NC1=O) [compound 24] | 0.09 | – |
| 25 (cyclo([dY]W[dY]K[dS]H[dA]E); SMILES C[C@H]1NC(=O)[C@H](Cc2c[nH]cn2)NC(=O)[C@@H](CO)NC(=O)[C@H](CCCCN)NC(=O)[C@@H](Cc2ccc(O)cc2)NC(=O)[C@H](Cc2c[nH]c3ccccc23)NC(=O)[C@@H](Cc2ccc(O)cc2)NC(=O)[C@H](CCC(=O)O)NC1=O) [compound 25] | 0.19 | – |
| 79 (cyclo([dW]L[dK]S[dK]S[dK]S); SMILES CC(C)C[C@@H]1NC(=O)[C@@H](Cc2c[nH]c3ccccc23)NC(=O)[C@H](CO)NC(=O)[C@@H](CCCCN)NC(=O)[C@H](CO)NC(=O)[C@@H](CCCCN)NC(=O)[C@H](CO)NC(=O)[C@@H](CCCCN)NC1=O) [compound 79] | 0.01 | – |
| 12 (cyclo([dW]L[dW]H[dE]N[dE]K); SMILES CC(C)C[C@@H]1NC(=O)[C@@H](Cc2c[nH]c3ccccc23)NC(=O)[C@H](CCCCN)NC(=O)[C@@H](CCC(=O)O)NC(=O)[C@H](CC(N)=O)NC(=O)[C@@H](CCC(=O)O)NC(=O)[C@H](Cc2c[nH]cn2)NC(=O)[C@@H](Cc2c[nH]c3ccccc23)NC1=O) [compound 12] | 0.07 | – |
